Activity calls are given as the source filed them. The rule behind the calls is not given here.
Assays:
[1] = Effect on p38 expression in human DBTRG-05MG cells at 112.4uM after 48 hrs in presence of TMZ by Western blot analysis (reference value: 1); type: functional
[2] = Effect of MDR1 expression in rat RG2 cells at 112.4 uM after 48 hrs by Western blot analysis; type: functional
DBTRG-05MG [3] = assay: Synergistic cytotoxicity against human DBTRG-05MG cells assessed as synergistic effect index at 134.9 uM after 48 hrs in presence of 103 uM TMZ by MTT assay; type: functional
[4] = Inhibition of TMZ-induced drug resistance in rat RG2 cells assessed as MGMT expression at 112.4 uM after 48 hrs by Western blot analysis (reference value: 2); type: functional
DBTRG-05MG [5] = assay: Induction of apoptosis in human DBTRG-05MG cells assessed as phosphorylated caspace-3 expression at 112.4 uM after 48 hrs in presence of TMZ by Western blot analysis (reference value: 1); type: functional
RG2 [6] = assay: Induction of apoptosis in rat RG2 cells assessed as phosphorylated caspace-3 expression at 112.4 uM after 48 hrs in presence of TMZ by Western blot analysis (reference value: 1); type: functional
DBTRG-05MG [7] = assay: Synergistic cytotoxicity against human DBTRG-05MG cells assessed as synergistic effect index at 112.4 uM after 48 hrs in presence of 309 uM TMZ by MTT assay; type: functional
RG2 [8] = assay: Induction of cell cycle arrest in rat RG2 cells assessed as accumulation at G0/G1 phase at 112.4 uM after 24 hrs in presence of TMZ by propidium iodide staining based flow cytometric analysis (reference value: 57.81 +/- 1.9%); type: functional
DBTRG-05MG [9] = assay: Induction of apoptosis in human DBTRG-05MG cells assessed as cleaved PARP expression at 112.4 uM after 48 hrs by Western blot analysis (reference value: 1); type: functional
DBTRG-05MG [10] = assay: Induction of apoptosis in human DBTRG-05MG cells assessed as cleaved caspace-9 expression at 112.4 uM after 48 hrs by Western blot analysis (reference value: 1); type: functional
DBTRG-05MG [11] = assay: Potentiation of TMZ-induced antitumor activity against human DBTRG-05MG cells xenografted in BALB/c nude mouse assessed as reduction in MGMT expression at 75 mg/kg, sc co-treated with TMZ for 18 days by fluorescent immunocytochemistry method; type: functional, organism-based; conditions: time 18.0 day
[12] = Toxicity in BALB/c mouse xenografted with DBTRG-05MG cells assessed as reduction in body weight at 75 mg/kg, sc for 18 days co-treated with TMZ; type: organism-based; conditions: in vivo, 432 h, time 18 day
DBTRG-05MG [13] = assay: Induction of apoptosis in human DBTRG-05MG cells assessed as cleaved caspace-3 expression at 112.4 uM after 48 hrs in presence of TMZ by Western blot analysis (reference value: 1); type: functional
DBTRG-05MG [14] = assay: Induction of apoptosis in human DBTRG-05MG cells assessed as cleaved caspace-9 expression at 112.4 uM after 48 hrs in presence of TMZ by Western blot analysis (reference value: 1); type: functional
RG2 [15] = assay: Induction of cell cycle arrest in rat RG2 cells assessed as accumulation at S phase at 112.4 uM after 24 hrs by propidium iodide staining based flow cytometric analysis (reference value: 20.15 +/- 2.44%); type: functional
DBTRG-05MG [16] = assay: Inhibition of ERK phosphorylation at Tyr204 residues in human DBTRG-05MG cells at 112.4uM after 48 hrs by Western blot analysis (reference value: 1); type: cell-based
[17] = Effect of MGMT expression in rat RG2 cells at 112.4 uM after 48 hrs by Western blot analysis (reference value: 1); type: functional
DBTRG-05MG [18] = assay: Induction of DNA damage in human DBTRG-05MG cells assessed as H2A.X phosphorylation at ser139 residues at 112.4 uM after 48 hrs in presence of TMZ by Western blot analysis (reference value: 1); type: functional
RG2 [19] = assay: Induction of apoptosis in rat RG2 cells assessed as Bax expression at 112.4 uM after 48 hrs in presence of TMZ by Western blot analysis (reference value: 1); type: functional
[20] = Effect on JNK expression in human DBTRG-05MG cells at 112.4uM after 48 hrs in presence of TMZ by Western blot analysis (reference value: 1); type: functional
DBTRG-05MG [21] = assay: Induction of cell cycle arrest in human DBTRG-05MG cells assessed as accumulation at G2/M phase at 112.4 uM after 6 hrs in presence of TMZ by propidium iodide staining based flow cytometric analysis (reference value: 30.08 +/- 0.1%); type: functional
RG2 [22] = assay: Induction of DNA damage in rat RG2 cells assessed as ATM phosphorylation at ser1981 residues at 112.4 uM after 48 hrs in presence of TMZ by Western blot analysis (reference value: 1); type: functional
RG2 [23] = assay: Induction of cell cycle arrest in rat RG2 cells assessed as accumulation at G2/M phase at 206 uM after 6 hrs by propidium iodide staining based flow cytometric analysis (reference value: 20.04 +/- 0.55%); type: functional
[24] = Toxicity in BALB/c mouse xenografted with DBTRG-05MG cells assessed as reduction in body weight at 5 mg/kg, ip after 5 days measured every 2 days; type: organism-based; conditions: in vivo, 120 h, time 5 day
[25] = molecular target: MAP kinase p38 (Homo sapiens) (UniProt O15264+Q15759+Q16539+P53778); assay: Inhibition of p38 phosphorylation at Tyr182 residues in human DBTRG-05MG cells at 206 uM after 48 hrs by Western blot analysis (reference value: 1); type: cell-based
RG2 [26] = assay: Induction of DNA damage in rat RG2 cells assessed as Chk2 phosphorylation at Thr68 at 206 uM after 48 hrs by Western blot analysis (reference value: 1); type: functional
DBTRG-05MG [27] = assay: Induction of cell cycle arrest in human DBTRG-05MG cells assessed as CDK4 expression at 206 uM after 48 hrs by Western blot analysis (reference value: 1); type: functional
DBTRG-05MG [28] = assay: Induction of cell cycle arrest in human DBTRG-05MG cells assessed as accumulation at G0/G1 phase at 206 uM after 48 hrs by propidium iodide staining based flow cytometric analysis (reference value: 47.16 +/- 1.55%); type: functional
DBTRG-05MG [29] = assay: Induction of DNA damage in human DBTRG-05MG cells assessed as Chk1 phosphorylation at ser345 residues at 206 uM after 48 hrs by Western blot analysis (reference value: 1); type: functional
RG2 [30] = assay: Induction of apoptosis in rat RG2 cells assessed as phosphorylated PARP expression at 206 uM after 48 hrs by Western blot analysis (reference value: 1); type: functional
RG2 [31] = assay: Induction of DNA damage in rat RG2 cells assessed as ATM phosphorylation at ser1981 residues at 206 uM after 48 hrs by Western blot analysis (reference value: 1); type: functional
RG2 [32] = assay: Induction of apoptosis in rat RG2 cells assessed as cleaved caspace-3 expression at 206 uM after 48 hrs by Western blot analysis (reference value: 1); type: functional
DBTRG-05MG [33] = assay: Induction of DNA damage in human DBTRG-05MG cells assessed as H2A.X phosphorylation at ser139 residues at 206 uM after 48 hrs by Western blot analysis (reference value: 1); type: functional

C[C@@H]1CC[C@H]2C(C)(C)[C@H]3C[C@@]12CC[C@@]3(C)O [CEDROL]
fold change (FC) [1]: 0.8
fold change (FC) [2]: 2.1
Activity_index (DBTRG-05MG [3]): 0.86
fold change (FC) [4]: 0.5
fold change (FC) (DBTRG-05MG [5]): 1.2
fold change (FC) (RG2 [6]): 1.2
Activity_index (DBTRG-05MG [7]): 0.87
Activity (RG2 [8]): 61.35%
fold change (FC) (DBTRG-05MG [9]): 1
fold change (FC) (DBTRG-05MG [10]): 1.1
Activity (DBTRG-05MG [11]): Active
Activity [12]: Non-Toxic
fold change (FC) (DBTRG-05MG [13]): 4.4
fold change (FC) (DBTRG-05MG [14]): 3.4
Activity (RG2 [15]): 9.09%
fold change (FC) (DBTRG-05MG [16]): 0.9
fold change (FC) [17]: 0.7
fold change (FC) (DBTRG-05MG [18]): 1.2
fold change (FC) (RG2 [19]): 2.21
fold change (FC) [20]: 0.4
Activity (DBTRG-05MG [21]): 32.51%
fold change (FC) (RG2 [22]): 1

Cn1nnc2c(C(N)=O)ncn2c1=O [TEMOZOLOMIDE]
Activity (RG2 [23]): 20.81%
Activity [24]: Non-Toxic
fold change (FC) [25]: 1.2
fold change (FC) (RG2 [26]): 1.3
fold change (FC) (DBTRG-05MG [27]): 0.7
Activity (DBTRG-05MG [28]): 22.95%
fold change (FC) (DBTRG-05MG [29]): 1
fold change (FC) (RG2 [30]): 0.4
fold change (FC) (RG2 [31]): 0.9
fold change (FC) (RG2 [32]): 2.5
fold change (FC) (DBTRG-05MG [33]): 1

— ChEMBL document CHEMBL4699511, “Cedrol, a Sesquiterpene Alcohol, Enhances the Anticancer Efficacy of Temozolomide in Attenuating Drug Resistance via Regulation of the DNA Damage Response and MGMT Expression” (J Nat Prod, 2020)
